Consider 4 compounds from US20090030005A1, “Combinations for the treatment of cancer” (AMGEN INC., priority 2007, published 2009).

Read-outs that look alike come from different tables or passages of the source.

The IC20 is the concentration needed for an effect of 20%. Usually IC50 stands for the concentration needed to halve the response being measured.

What all share (assay type): cell-based
Assay [1] has as its system MiaPaCa-2 cells. The assay is described as follows: 14C-thymidine incorporation assay, IC20 determination (MTAP status not specified). The conditions noted are these: Homo sapiens, MIA PaCa-2; same thymidine incorporation assay as Example 2. The protocol:
(§1) CDK4 inhibitor in MTAP^+/+ and MTAP^−/− MiaPaCa-2 cells. The IC50 of a CDK4 inhibitor was determined in the MTAP+/+ and MTAP−/− MiaPaCa-2 cells using a thymidine incorporation assay. MTAP^−/− and MTAP^+/+ MiaPaCa-2 cells from Example 1 were seeded at 2×10^4 cells/ml in 100 μl per well in Costar T plates (Amersham Biosciences). Twenty-four hours later a dose response of a CDK4 inhibitor PD-0332991 (1 nM; 3 nM, 10 nM, 30 nM, 100 nM, 300 nM, 1 μM, 3 μM, 10 μM and 30 μM concentrations) was added to triplicate wells. ^14C-Thymidine (0.1 μCi, Amersham) was added to each well for a final total volume of 200 μL. Plates were read on a beta counter for incorporation of the radioactive thymidine as a measure of cell viability at time 0, 24, 48, 72 and 96 hours. Data was calculated as the mean and standard deviation of triplicate samples divided by the mean and standard deviation of untreated control samples to yield percent of control.
Alanosine or MTX were then dosed at the IC20 concentrations together with a dose response of the CDK4 inhibitor with or without adenine or MTA.
(Uptake of a labelled nucleoside into DNA is a usual measure of proliferation.)

In assay [2] the test system is MTAP-/- MiaPaCa-2 cells. Kind of assay: 14C-thymidine incorporation assay (cell viability) in MTAP-/- MiaPaCa-2 cells. The conditions noted are these: for IC50: Homo sapiens. The protocol: (§2) Generation of MTAP^+/+ and MTAP^−/− MiaPaCa-2 cells. MiaPaCa-2 pancreatic cells, which harbor a homozygous deletion in MTAP (MTAP^−/−) were obtained from ATCC. Cells were infected with either a control virus (pLPC) or a virus expressing MTAP (pLPC-MTAP). Infected cells were selected by puromycin resistance and maintained in 0.5 μg/ml puromycin. MTAP expression in MTAP^+/+ MiaPaCa-2 cells was confirmed by QPCR.
as §1
(§3) Combination of de novo purine biosynthesis inhibitor and CDK4 inhibitor in MTAP^−/− cells with adenine. MTAP^−/− MiaPaCa-2 cells from Example 1 were seeded at 2×10^4 cells/ml in 100 μl per well in Costar T plates (Amersham Biosciences). Twenty-four hours later a dose response of a CDK4 inhibitor PD-0332991 (1 nM; 3 nM, 10 nM, 30 nM, 100 nM, 300 nM, 1 μM, 3 μM, 10 μM and 30 μM concentrations) was added to triplicate wells with or without 1.7 μM (IC20) of alanosine. Some cells were also treated with 20 μM adenine (Sigma) as rescue substrate. ^14C-Thymidine (0.1 μCi, Amersham) was added to each well for a final total volume of 200 μL. Plates were read for incorporation of the radioactive thymidine as a measure of cell viability on a beta counter at time 0, 24, 48, 72 and 96 hours. Data was calculated as the mean and standard deviation of triplicate samples divided by the mean and standard deviation of untreated control samples to yield percent of control.
as §3, with “MTA.” for “adenine.”, “MTA” for “adenine”
(§4) Combination of MTX and CDK4 inhibitor in MTAP^−/− cells. MTAP^−/− MiaPaCa-2 cells from Example 1 were seeded at 2×10^4 cells/ml in 100 μl per well in Costar T plates (Amersham Biosciences). Twenty-four hours later a dose response of a CDK4 inhibitor PD-0332991 (1 nM; 3 nM, 10 nM, 30 nM, 100 nM, 300 nM, 1 μM, 3 μM, 10 μM and 30 μM concentrations) and thymidine (20 μM, Sigma) was added to triplicate wells with or without 20 nM (IC20) of MTX. ^14C-Thymidine (0.1 μCi, Amersham) was added to each well for a final total volume of 200 μL. Plates were read for incorporation of the radioactive thymidine as a measure of cell viability on a beta counter at time 0, 24, 48, 72 and 96 hours.

Assay [3] concerns MTAP+/+ MiaPaCa-2 cells. The assay is described as follows: 14C-thymidine incorporation assay (cell viability) in MTAP+/+ MiaPaCa-2 cells. The conditions noted are these: for IC50: Homo sapiens. As for the experimental part:
as §2, §1
as §3, with “MTAP^+/+” for “MTAP^−/−”
Combination of de novo purine biosynthesis inhibitor and CDK4 inhibitor in MTAP^+/+ cells with MTA. MTAP^+/+ MiaPaCa-2 cells from Example 1 were seeded at 2×10^4 cells/ml in 100 μl per well in Costar T plates (Amersham Biosciences).
as §3, with “Twenty-four” for “Combination of de novo purine biosynthesis inhibitor and CDK4 inhibitor in MTAP^−/− cells with adenine. MTAP^−/− MiaPaCa-2 cells from Example 1 were seeded at 2×10^4 cells/ml in 100 μl per well in Costar T plates (Amersham Biosciences). Twenty-four”, “MTA” for “adenine”
as §4, with “MTAP^+/+” for “MTAP^−/−”

In turn, `CN(Cc1cnc2nc(N)nc(N)c2n1)c1ccc(C(=O)N[C@@H](CCC(=O)O)C(=O)O)cc1` [MTX, Methotrexate] displayed an IC20 in assay [1] of 2 nM. That is a single-digit nanomolar value.

Take `CC(=O)c1c(C)c2cnc(Nc3ccc(N4CCNCC4)cn3)nc2n(C2CCCC2)c1=O` [PD-0332991]: the IC50 in assay [2] (MIA PaCa-2, Example 2, first experiment, CDK4 inhibitor alone, MTAP-/- cells, FIG. 1, read-out: IC50 of the CDK4 inhibitor) was 1560 nM; in assay [2] (MIA PaCa-2, MTAP-/- cells, 1.7 μM alanosine and 20 μM MTA, read-out: IC50 of the CDK4 inhibitor together with the alanosine and with MTA), 643 nM; in assay [2] (MIA PaCa-2, MTAP-/- cells, 1.7 μM alanosine and 20 μM adenine, read-out: IC50 of the CDK4 inhibitor together with the alanosine and with adenine) it was 2460 nM; in assay [2] (MIA PaCa-2, MTAP-/- cells, 20 μM MTA, read-out: IC50 of the CDK4 inhibitor together with the MTA) it was 1710 nM; in assay [2] (MIA PaCa-2, MTAP-/- cells, 20 μM adenine, read-out: IC50 of the CDK4 inhibitor together with the adenine), 950 nM; in assay [2] (MIA PaCa-2, MTAP-/- cells, Examples 4 and 6, FIG. 3, 5, read-out: IC50 of the CDK4 inhibitor alone), 1280 nM. Further, the IC50 in assay [2] (MIA PaCa-2, MTAP-/- cells, with 1.7 μM (IC20) alanosine, read-out: IC50 of the CDK4 inhibitor together with the alanosine) came to 287 nM; in assay [2] (MIA PaCa-2, MTAP-/- cells, with thymidine 20 μM and 20 nM (IC20) MTX, read-out: IC50 of the CDK4 inhibitor together with MTX) it was 800 nM; in assay [2] (MIA PaCa-2, MTAP-/- cells, with thymidine 20 μM, Example 8, FIG. 7, read-out: IC50 of the CDK4 inhibitor alone) it was 1300 nM; in assay [3] (MIA PaCa-2, Example 2, first experiment, CDK4 inhibitor alone, MTAP+/+ cells, FIG. 1, read-out: IC50 of the CDK4 inhibitor) it was 1.82 µM; in assay [3] (MIA PaCa-2, MTAP+/+ cells, 1.7 μM alanosine and 20 μM MTA, read-out: IC50 of the CDK4 inhibitor together with the alanosine and with MTA), 6.1 µM; in assay [3] (MIA PaCa-2, MTAP+/+ cells, 1.7 μM alanosine and 20 μM adenine, read-out: IC50 of the CDK4 inhibitor together with the alanosine and with adenine), 5.56 µM. For the same compound, the IC50 in assay [3] (MIA PaCa-2, MTAP+/+ cells, 20 μM MTA, read-out: IC50 of the CDK4 inhibitor together with the MTA) is 8.25 µM; in assay [3] (MIA PaCa-2, MTAP+/+ cells, 20 μM adenine, read-out: IC50 of the CDK4 inhibitor together with the adenine), 7.36 µM; in assay [3] (MIA PaCa-2, MTAP+/+ cells, Examples 3 and 5, FIG. 2, 4, read-out: IC50 of the CDK4 inhibitor alone), 4.33 µM; in assay [3] (MIA PaCa-2, MTAP+/+ cells, with 1.7 μM (IC20) alanosine, read-out: IC50 of the CDK4 inhibitor together with the alanosine), 0.996 µM; in assay [3] (MIA PaCa-2, MTAP+/+ cells, with thymidine 20 μM and 20 nM (IC20) MTX, read-out: IC50 of the CDK4 inhibitor together with MTX) it was 3.5 µM; in assay [3] (MIA PaCa-2, MTAP+/+ cells, with thymidine 20 μM, Example 7, FIG. 6, read-out: IC50 of the CDK4 inhibitor alone) it was 3.2 µM.

In the case of `Nc1ncnc2nc[nH]c12` [adenine], the “Rescue of the alanosine shift of the IC50 of the CDK4 inhibitor” value in assay [2] (MTAP-/- cells, 20 μM rescue substrate) is “rescued”; in assay [3] (MTAP+/+ cells, 20 μM rescue substrate), “rescued”.

Consider `N[C@@H](CN(O)N=O)C(=O)O` [alanosine], for which the 20% effect level in assay [1] (IC20) was put at 1700 nM. That is a single-digit micromolar value.
